Reference: patent US6753337B2, “Alkynyl containing hydroxamic acid compounds as matrix metalloproteinase/tace inhibitors” (Wyeth Holdings Corporation, priority 1999, dated 2004)
Read-outs that look alike come from different tables or passages of the source.

Legend:
[1] = test system: THP-1 cells; experiment: Human monocytic THP-1 cell differentiation assay for soluble proteins (THP-1 soluble protein assay); assay type: cell-based; conditions: LPS-stimulated THP-1 cells, soluble protein not given
Source text: Mitogenic stimulation of THP-1 cells cause differentiation into macrophage like cells with concomitant secretion of tumor necrosis factor (TNF-α) and TNF receptor (TNF-R p75/80 and TNF-R p55160) and Interleukin-8 (IL-8), among other proteins. In addition, non-stimulated THP-1 cells shed both the p75/80 and the p55/60 receptors over time. The release of membrane bound TNF-α and possibly TNF-R p75/80 and TNF-R p55/60, but not IL-8, is mediated by an enzyme called TNF-α converting enzyme or TACE.
THP-1 cells (from ATCC) are a human monocytic cell line which were obtained from the peripheral blood of a person with acute monocytic leukemia. They can be grown in culture and differentiated into macrophage like cells by stimulation with mitogens.
Each vial of cells are cultured for about two weeks prior to being used for an assay and then are used for only 4 to 6 weeks to screen compounds.
Cell exposure to DMSO was limited to 0.1% final concentration. […] Compounds can be evaluated for their effect on basal (non-stimulated) shedding of the receptors by replacing the LPS with […] of THP-1 media.
Plates are placed into an incubator set at 5% CO2 and at 37° C. After 4 hours of incubation, […] of tissue culture supernatant (TCS) is removed for use in an TNF-α ELISA. Following 24 hours of incubation, […] of TCS is removed and used for analysis in TNF-R p75/80, TNF-R p55160 and IL-8 ELISAs.
In addition, at the 24 hours timepoint, and the cells for each treatment group are collected by resuspension in 500 μl/well of THP-1 media and transferred into a FACS tube. […] The samples are run on a Becton Dickinson FaxCaliber FLOW cytometry machine and the amount of dye taken up by each cell is measured in the high red wavelength (FL3). Only cells with compromised membranes (dead or dying) can take up PI. The percent of live cells is calculated by the number of cells not stained with PI, divided by the total number of cells in the sample. The viability values calculated for the drug treated groups were compared to the viability value calculated for the vehicle treated mitogen stimulated group (“vehicle positive control”) to determine the “percent change from control”. This “percent change from control” value is an indicator of drug toxicity.
The quantity of soluble TNF-α, TNF-R p75/80 and TNF-R p55160 and IL-8 in the TCS of the THP-1 cell cultures are obtained with commercially available ELISAs from R&D Systems, by extrapolation from a standard curve generated with kit standards. The number of cells that either take up or exclude PI are measured by the FLOW cytometry machine and visualized by histograms using commercially available Cytologic software for each treatment group including all controls.
Biological variability in the magnitude of the response of THP-1 cell cultures requires that experiments be compared on the basis of percent change from “vehicle positive control” for each drug concentration. Percent change in each soluble protein evaluated from the “vehicle positive control” was calculated for each compound concentration with the following formula: [formula]
For the soluble protein (TNF-α, p75/80, p55/60, IL-8) studies under stimulated conditions, the mean pg/ml of duplicate wells were determined and the results expressed as percent change from “vehicle positive control”. For the soluble protein (p75/80 and p55/60 receptors) studies under non-stimulated conditions, the mean pg/ml of duplicate wells were determined and the results expressed as percent change from “vehicle positive control” utilizing the following formula: [formula]
IC50 values for each compound are calculated by non-linear regression analysis using customized software utilizing the JUMP statistical package.
For the cell viability studies, the viabilities (PI exclusion) of pooled duplicate wells were determined and the results expressed as % change from “vehicle positive control”.

[2] = target: T1, MMP-1 (Homo sapiens, UniProt P03956); experiment: MMP-1 inhibition (thiopeptide or fluorescent peptide substrate); assay type: biochemical; conditions: for IC50: read-out: MMP1 IC50
T1 sequence (P03956 100-469): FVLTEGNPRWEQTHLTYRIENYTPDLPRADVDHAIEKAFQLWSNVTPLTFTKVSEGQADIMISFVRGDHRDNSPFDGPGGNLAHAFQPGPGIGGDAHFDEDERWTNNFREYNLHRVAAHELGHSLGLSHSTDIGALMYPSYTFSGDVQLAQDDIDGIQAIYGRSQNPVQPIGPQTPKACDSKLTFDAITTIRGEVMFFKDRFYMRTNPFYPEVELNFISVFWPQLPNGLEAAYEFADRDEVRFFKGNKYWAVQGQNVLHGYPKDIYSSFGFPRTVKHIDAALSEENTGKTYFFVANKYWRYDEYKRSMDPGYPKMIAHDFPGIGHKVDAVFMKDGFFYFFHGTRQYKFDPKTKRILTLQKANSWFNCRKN

[3] = target: MMP-9 (Homo sapiens, UniProt P14780); experiment: MMP-9 inhibition (thiopeptide or fluorescent peptide substrate); assay type: biochemical; conditions: for IC50: read-out: MMP9 IC50
MMP-9, sequence (P14780 94-707): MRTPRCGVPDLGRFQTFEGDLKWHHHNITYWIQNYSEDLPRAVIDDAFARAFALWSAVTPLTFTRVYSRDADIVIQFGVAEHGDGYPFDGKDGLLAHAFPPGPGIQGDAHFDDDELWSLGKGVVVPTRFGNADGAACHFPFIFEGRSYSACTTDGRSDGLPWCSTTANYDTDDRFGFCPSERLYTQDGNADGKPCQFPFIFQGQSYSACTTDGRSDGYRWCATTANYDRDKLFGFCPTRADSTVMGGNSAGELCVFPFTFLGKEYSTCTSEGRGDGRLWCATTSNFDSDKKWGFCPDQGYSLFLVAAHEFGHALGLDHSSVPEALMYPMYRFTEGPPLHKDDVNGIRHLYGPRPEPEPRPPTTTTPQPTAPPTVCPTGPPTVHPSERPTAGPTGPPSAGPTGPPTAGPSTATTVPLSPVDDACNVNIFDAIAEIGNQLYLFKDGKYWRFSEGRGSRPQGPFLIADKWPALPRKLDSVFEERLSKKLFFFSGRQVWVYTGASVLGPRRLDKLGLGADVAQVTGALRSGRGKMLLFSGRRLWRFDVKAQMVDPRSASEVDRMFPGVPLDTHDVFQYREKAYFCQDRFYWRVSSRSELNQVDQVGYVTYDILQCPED

Compound	inhibition at 3 µM [1]	IC50 ([2]; cells that print nM)	IC50 [3]	IC50 [2]	MMP1 % inhibition ([2]; printed in the MMP1 IC50 column, concentration not given)	MMP9 % inhibition ([3]; printed in the MMP9 IC50 column, concentration not given)
CC#CCOc1ccc(S(=O)(=O)C2(C(=O)NO)CCN(Cc3ccc(OCCN4CCCCC4)cc3)CC2)cc1 [Example 26, 4-{[4-(2-Butynyloxy)phenyl]sulfonyl}-1-[4-(2-piperidin-1-yl-ethoxy)-benzyl]-piperidine-4-carboxylic acid hydroxyamide]	63%	1990 nM	0.0251 µM			
CC#CCOc1ccc(S(=O)(=O)C2(C(=O)NO)CCN(C(CC)CC)CC2)cc1 [Example 27, 4-{[4-(2-Butynyloxy)phenyl]sulfonyl}-1-(3-pentanyl)-piperidine-4-carboxylic acid hydroxyamide]	13%		1.54 µM	> 10000 nM		
C#CCOc1ccc(S(=O)(=O)C2(C(=O)NO)CCN(Cc3ccc(OC)cc3)CC2)cc1 [Example 28, 1-(4-Methoxy-benzyl)-4-(4-prop-2-ynyloxy-benzenesulfonyl)-piperidine-4-carboxylic acid hydroxyamide]	13%	106 nM	0.0154 µM			
C#CCOc1ccc(S(=O)(=O)C2(C(=O)NO)CCN(Cc3ccc(Cl)cc3)CC2)cc1 [Example 29, 1-(4-Chlorobenzyl)-4-(4-prop-2-ynyloxy-benzenesulfonyl)-piperidine-4-carboxylic acid hydroxyamide]	13%	91 nM	0.016 µM			
CC#CCOc1ccc(SCC2(C(=O)NO)CCN(C(=O)OC(C)(C)C)CC2)cc1 [Example 30, tert-butyl-4-({[4-(2-butynyloxy)phenyl]sulfanyl}methyl)-4-[(hydroxyamino)-carbonyl]-1-piperidinecarboxylate]	0%		5.9 µM	> 10000 nM		
CC#CCOc1ccc(SCC2(C(=O)NO)CCNCC2)cc1 [Example 31, 4-({[4-(But-2-ynyloxy)phenyl]thio}methyl)-N-hydroxypiperidine-4-carboxamide]	8%		> 10 µM	> 10000 nM		
CC#CCOc1ccc([S+]([O-])CC2(C(=O)NO)CCN(C(=O)OC(C)(C)C)CC2)cc1 (stereo not drawn) [Example 32, tert-Butyl-4-({[4-(2-butynyloxy)phenyl]sulfinyl}methyl)-4-[(hydroxyamino)-carbonyl]-1-piperidinecarboxylate]	0%		> 10 µM	> 10000 nM		
CC#CCOc1ccc([S+]([O-])CC2(C(=O)NO)CCNCC2)cc1 (stereo not drawn) [Example 33, 4-[[[4-(2-Butynyloxy)phenyl]sulfinyl]methyl]-N-hydroxy-4-piperidinecarboxamide]	8%		> 5 µM	> 10000 nM		
CC#CCOc1ccc(S(=O)(=O)CC2(C(=O)NO)CCN(C(=O)OC(C)(C)C)CC2)cc1 [Example 34, tert-Butyl-4-({[4-(but-2-ynyloxy)phenyl]sulfonyl}methyl)-4-[(hydroxyamino)-carbonyl]piperidine-1-carboxylate]	68%		1.39 µM	~10000 nM		
CC#CCOc1ccc(S(=O)(=O)CC2(C(=O)NO)CCN(C(C)=O)CC2)cc1 [Example 36, 1-Acetyl-4-[[[4-(2-butynyloxy)phenyl]sulfonyl]methyl]-N-hydroxy-4-piperidinecarboxamide]	58%		2.83 µM	3900 nM		
CC#CCOc1ccc(S(=O)(=O)CC2(C(=O)NO)CCN(C(=O)NC(C)(C)C)CC2)cc1 [Example 38]	53%		1.44 µM	~10000 nM		
CC#CCOc1ccc(S(=O)(=O)CC2(C(=O)NO)CCN(C(=O)OCc3ccccc3)CC2)cc1 [Example 40, Benzyl 4-({[4-(2-butynyloxy)phenyl]sulfonyl}methyl)-4-[(hydroxyamino)-carbonyl]-1-piperidinecarboxylate]	41%		0.425 µM	707 nM		
CC#CCOc1ccc(S(=O)(=O)CC2(C(=O)NO)CCN(Cc3ccccc3)CC2)cc1 [Example 41]	60%		1.12 µM	2680 nM		
CC#CCOc1ccc(S(=O)(=O)CC2(C(=O)NO)CCN(C(=O)C3(C)COC(C)(C)OC3)CC2)cc1 [Example 42, 4-({[4-(2-Butynyloxy)phenyl]sulfonyl}methyl)-N-hydroxy-1-[(2,2,5-trimethyl-1,3-dioxan-5-yl)carbonyl]-4-piperidinecarboxamide]	78%		> 10 µM	~10000 nM		
CC#CCOc1ccc(S(=O)(=O)CC2(C(=O)NO)CCN(C(=O)C(C)(CO)CO)CC2)cc1 [Example 43, 4-({[4-(2-Butynyloxy)phenyl]sulfonyl}methyl)-N-hydroxy-1-[3-hydroxy-2-(hydroxymethyl)-2-methylpropanoyl]-4-piperidinecarboxamide]	66%		> 10 µM	~10000 nM		
CC#CCOc1ccc(S(=O)(=O)CC2(C(=O)NO)CCN(C(=N)N)CC2)cc1 [Example 44]	49%				35%	50.6%
CC#CCOc1ccc(S(=O)(=O)CC2(C(=O)NO)CCN(CC#CCO)CC2)cc1 [Example 45]	48%		3.58 µM	3800 nM		
CC#CCOc1ccc(S(=O)(=O)C2(C(=O)NO)CCN(C(C)=O)CC2)cc1 [Example 64, 1-Acetyl-4-(4-but-2-ynyloxybenzenesulfonyl)piperidine-4-carboxylic acid hydroxamide]	30%		0.56 µM	4080 nM		
CC#CCOc1ccc(S(=O)(=O)C2(C(=O)NO)CCN(C(=O)c3ccccc3)CC2)cc1 [Example 65, 1-Benzoyl-4-(4-but-2-ynyloxybenzenesulfonyl)piperidine-4-carboxylic acid hydroxamide]	3%		0.448 µM	3530 nM		
CC#CCOc1ccc(S(=O)(=O)C2(C(=O)NO)CCN(C(=O)c3ccc(OC)cc3)CC2)cc1 [Example 66, 1-(4-Methoxybenzoyl)-4-(4-but-2-ynyloxybenzenesulfonyl)piperidine-4-carboxylic acid hydroxamide]	73%		0.43 µM	2770 nM		
CC#CCOc1ccc(S(=O)(=O)C2(C(=O)NO)CCN(C(=O)N3CCCC3)CC2)cc1 [Example 67, 4-(4-But-2-ynyloxybenzenesulfonyl)-N-hydroxy-1-(pyrrolidine-1-carbonyl)-4-piperidinecarboxamide]	18%		0.853 µM	2030 nM		
CC#CCOc1ccc(S(=O)(=O)C2(C(=O)NO)CCN(C(=O)OCC)CC2)cc1 [Example 68, Ethyl 4-(4-but-2-ynyloxybenzenesulfonyl)-4-[(hydroxyamino)-carbonyl]-1-piperidinecarboxylate]	10%		1.33 µM	2250 nM		
